Data taken from patent publication US8518903B2, “Use of toll-like receptor-9 agonists” (University of Pittsburgh—of the Commonwealth System of …, priority 2007, dated 2013).

Tests used:
[1] = tested on: IEC-6 cells; assay: IL-6 release from LPS-treated IEC-6 cells (ELISA); format: cell-based; conditions: IEC-6 cells in vitro
Experimental: (§1) FIG. 24A-C. MDP inhibits TLR4 signaling in enterocytes. A. IL-6 release in vitro as determined by ELISA in IEC-6 cells that were either untreated, or treated with LPS in the presence or absence of MDP. B. Serum IL-6 release in vivo in wild-type (open bars) and NOD2-deficient mice (solid bars) that were either pre-treated with saline or MDP then injected with LPS. C. SDS-PAGE showing the expression of phosphorylated ERK and beta-actin in IEC-6 cells that were treated with media (control), LPS, LPS with MDP, LPS with MDP-C which is a non-stimulatory analogue of MDP, and either MDP or MDP-C alone. **p<0.05 vs. control by ANOVA, *p<0.05 vs. LPS by ANOVA.
(§2) The next series of experiments were designed to further define the physiological significance of the finding that MDP reduces TLR4-mediated NFkB translocation in enterocytes, and to evaluate potential mechanisms involved. Since NFkB activation is known to lead to the release of pro-inflammatory cytokines including IL-6, experiments were performed to evaluate whether MDP would alter the extent of IL-6 release from LPS-treated IEC-6 cells. […] To determine the physiological significance of this work in vivo, wild-type and NOD2-knockout mice were injected with LPS (5 mg/kg) in the presence or absence of MDP (1 mg/kg), and serum IL-6 release—a measure of TLR4 signaling in vivo—was determined by ELISA.

[2] = tested on: IEC-6 cells; assay: pERK expression in LPS-treated IEC-6 cells (SDS-PAGE); format: cell-based
Experimental: as §1
To further define the effects of MDP on LPS-mediated signaling in enterocytes, IEC-6 cells were treated with LPS in the presence or absence of MDP and the expression of the TLR4 downstream target pERK was assessed by SDS-PAGE. As is shown in FIG. 24C, LPS caused an increase in the expression of pERK compared with untreated cells. […] Taken together, these findings indicate that NOD2 activation with MDP leads to an inhibition of TLR4 signaling in enterocytes in vitro and in vivo.

[3] = tested on: experimental NEC in newborn mice; assay: Murine NEC model in NFkB-GFP transgenic mice (histology, mucosal TNF-α RTPCR, NFκB activation); format: in vivo, mouse
Experimental: FIG. 27A-G. CpG-ODN-HS and CpG-DNA reduce the development of experimental NEC in vivo in newborn mice. Newborn NEC and control mice were injected with CpG-ODN-HS or CpG-DNA. A. Histology (H&E) of terminal ileum of breast fed mouse. B. Histology (H&E) of terminal ileum of mouse after induction of NEC. C. Histology (H&E) of terminal ileum of mouse treated with CpG-DNA, after which conditions which induced NEC were applied. D. Histology (H&E) of terminal ileum of mouse treated with CpG-ODN-HS, after which conditions which induced NEC were applied. E. Histology (H&E) of terminal ileum of breast fed mouse treated with CpG-ODN-HS. F. Histology (H&E) of terminal ileum of breast fed mouse treated with CpG-DNA. G. Severity of NEC in newborn mice as scored by a blinded pediatric pathologist. *p<0.05 vs. NEC in saline-injected mice.
FIG. 28. CpG-ODN-HS and CpG-DNA reduce the expression of mucosal TNF-α in NEC newborn mice in vivo.
FIG. 29A-D. Confocal microscopy showing the extent of NFkB activation in mice with NEC in the absence or presence of CpG-ODN-HS. CpG-ODN-HS reduces the level of NFkB activation in NEC newborn mice in vivo. The mice express NFkB-GFP, and sections were stained with anti-GFP antibody (red; arrow).
The effect of the TLR9 agonist CpG-ODN 5′ […] 3′ (SEQ ID NO:10; referred to herein as CpG-ODN-HS) on the mediator of activated TLR4, NFκB, was examined in a murine NEC model (previously described, above). The effect of CpG-ODN-HS on inflammation in the NEC murine model was also examined as a measured by TNF-α expression, which is an index of inflammation.
Materials and methods. Phosphorothioated CpG-ODN-HS and oligodeoxynucleotide (ODN) 1826 ([…]) (SEQ ID NO:6; referred to herein as CpG-DNA) were synthesized by the University of Pittsburgh DNA synthesis facility. ODNs were confirmed to be endotoxin-free by Limulus assay. NFkB-GFP antibody was obtained from Santa Cruz and Abcam. The extent of nuclear translocation was determined in an adaptation of the methodology of Ding and colleagues. In brief, a threshold limit was set based upon the emission signal for the nuclear stain DRAQ5, which therefore defined a nuclear region of interest (ROI). To define a corresponding cytoplasmic region of interest, a circular region 12 pixels beyond the nucleus was stenciled upon each cell. The average integrated pixel intensity pertaining to the corresponding NFkB emission within the cytoplasmic and nuclear regions was then determined for more than 200 cells per treatment group in at least four experiments per group, using MetaMorph software version 6.1 (Molecular Devices Corporation, Downingtown, Pa.).
Mucosal TNF-α expression was measured using quantitative real-time PCR (RTPCR). Quantitative real-time PCR in cultured enterocytes and intestinal tissue using the BioRad iCycler (Biorad, Hercules, CA) was performed as in (Leaphart, C. L., J. Cavallo, S. C. Gribar, S. Cetin, J. Li, M. F. Branca, T. D. Dubowski, C. P. Sodhi, and D. J. Hackam. 2007. A Critical Role for TLR4 in the Pathogenesis of Necrotizing Enterocolitis by Modulating Intestinal Injury and Repair. J Immunology 179:4808-4820). Oligonucleotide primer pairs used for RTPCR were as follows: forward: 5′ […] 3′ (SEQ ID NO:14), reverse: 5′ […] 3′ (SEQ ID NO:15); and forward: 5′ […] 3′ (SEQ ID NO:16), reverse: 5′ […] 3′ (SEQ ID NO:17). Gene expression was normalized to β-actin expression. Where indicated, gene expression was assessed on 2.5% agarose gels using ethidium bromide staining. […]

[4] = tested on: IEC-6 enterocytes; assay: TLR4-mediated NFkB (p65) translocation in IEC-6 enterocytes treated with LPS and MDP; format: cell-based; conditions: IEC-6 cells
From the text: FIG. 23A-E. MDP prevents TLR4-mediated NFkB translocation in IEC-6 enterocytes. […] Representative of 5 separate experiments. **p<0.05 vs. control by ANOVA, *p<0.05 vs. LPS by ANOVA.
NOD2 activation with MDP inhibits TLR4 signaling in enterocytes. The next experiments were designed to determine whether NOD2 activation with MDP would inhibit TLR4 signaling in enterocytes. To do so, IEC-6 enterocytes—a cell line that represents a model system to study enterocyte biology and which expresses TLR4 (Neal et al., 2006, J Immunol 176:3070-3079)—were treated with LPS in the presence or absence of MDP. Since TLR4 signaling leads to the translocation of NFkB from the cytoplasm into the nucleus, the extent of TLR4 activation was evaluated using an immunofluorescence-based detection assay of the p65 subunit of NFkB. As is shown in FIG. 23A and quantified in FIG. 23E, in control cells, NFkB is localized in the cytoplasm. Upon treatment with LPS ([…], 1 h), NFkB was detected in the nucleus, indicative of NFkB activation (FIG. 23B).

[5] = tested on: wild-type and NOD2-knockout mice; assay: Serum IL-6 release in LPS-injected wild-type and NOD2-knockout mice (ELISA); format: in vivo, mouse; conditions: LPS 5 mg/kg, MDP 1 mg/kg
Experimental: as §1, §2

[6] = tested on: TLR4; assay: TLR4 distribution and expression in enterocytes after MDP (immunohistochemistry, RT-PCR); format: in vivo, mouse
Experimental: FIG. 25. MDP treatment decreases TLR4 expression in enterocytes. Newborn mice were treated with LPS after pre-treatment with either saline or MDP. Three hours later mucosal scrapings were harvested from the terminal ileum, and subjected to RT-PCR for expression of TLR4. Representative of 4 separate experiments. Duplicate samples are shown for each group.
MDP treatment of enterocytes reduces the expression of TLR4. The next series of studies investigated the potential mechanisms by which MDP activation of NOD2 could lead to a reduction in the extent of TLR4 signaling.

[7] = tested on: experimental NEC in newborn mice; assay: Experimental necrotizing enterocolitis in newborn mice, MDP treatment; format: in vivo, mouse
Experimental: FIG. 26A-E. MDP prevents against the development of experimental NEC in vivo in newborn mice. Newborn mice were injected with saline or MDP daily for four days, and then were induced to develop NEC. A. Histology (H&E) of terminal ileum of breast fed mouse treated with saline control. B. Histology (H&E) of terminal ileum of breast fed mouse treated with MDP. C. Histology (H&E) of terminal ileum of mouse pre-treated with saline, after which NEC was induced. D. Histology (H&E) of terminal ileum of mouse pre-treated with MDP, after which conditions which induced NEC in saline-treated mice were applied. E: Severity of NEC in newborn mice as scored by a blinded pediatric pathologist. *p<0.05 vs. NEC in saline-injected mice. Representative of three separate experiments with over 5 animals per group.
NOD2 expression in the intestine is reduced in human and experimental necrotizing enterocolitis. […]
MDP prevents against the development of experimental necrotizing enterocolitis. […] It was also determined that mucosal NOD2 expression is decreased in experimental NEC (FIG. 22I). […]

[8] = tested on: models of ulcerative colitis; conditions: previous reports; cited from earlier work

Which “LPS-induced IL-6 release” value [1] does the source give for `CC(=O)NC1C(O)OC(CO)C(O)C1OC(C)C(=O)NC(C)C(=O)NC(CCC(=O)O)C(N)=O` (stereo not shown) [MDPC] here?
Its value is “did not reduce”.

And the “LPS-induced pERK expression” value [2]?
Its value is “did not reduce”.

For “5′ TCGTCGTTTTGTCGTTCCTGACGTT 3′ (listed as DNA, chemistry not fully specified) [CpG-ODN-HS, TLR9 agonist CpG-ODN]”, which “activation of NFκB” value ([3]; NEC mice expressing NFkB-GFP, confocal microscopy) is on record?
Its value is “reduced”.

And the “level of expression of mucosal TNF-α in terminal ileum” value ([3]; NEC mice, RTPCR)?
Its value is “reduced”.

And the “NEC pathology (histology of terminal ileum)” value ([3]; NEC mice, treated vs untreated)?
The value was “inhibition of the NEC pathology”.

Which “LPS-induced nuclear translocation of NFkB” value ([4]; LPS in the presence of MDP) does the source give for `CC(=O)N[C@@H]1[C@@H](O[C@H](C)C(=O)N[C@@H](C)C(=O)N[C@H](CCC(=O)O)C(N)=O)[C@H](O)[C@@H](CO)O[C@H]1O` [MDP, muramyl-di-peptide] here?
The value was “reduction in nuclear translocation”.

What about the “extent of NFkB translocation” value ([4]; MDP alone) of the same compound?
Its value is “did not significantly alter”.

What about the “LPS-induced IL-6 release” value [1] of the same compound?
The value was “significantly reduced”.

And the “effect in reducing TLR4 signaling (serum IL-6 release)” value ([5]; NOD2-knockout mice)?
The value was “less pronounced”.

And the “LPS-mediated serum IL-6 release” value ([5]; wild-type mice)?
The value was “significantly reduced”.

And the “LPS-induced pERK expression” value [2]?
Its value is “significantly reduced”.

What about the “relative distribution of TLR4 in enterocytes” value ([6]; immunohistochemistry) of the same compound?
The value was “does not alter”.

What about the “expression of TLR4 in enterocytes” value ([6]; newborn mice, LPS after MDP pre-treatment, terminal ileum mucosal scrapings, RT-PCR) of the same compound?
The value was “significant reduction”.

And the “extent of NEC that developed (histology of terminal ileum)” value ([7]; NOD2-wild-type mice, MDP 1 mg/ml daily for four days, vs saline)?
Its value is “striking reduction in the extent of NEC”.

And the intestinal histology ([7]; breast fed mice, MDP alone)?
Its intestinal histology is “did not alter intestinal histology”.

What about the “degree of intestinal inflammation” value [8] of the same compound?
The value was “can limit the degree of intestinal inflammation”.
